The results in this text go back to ChEMBL document CHEMBL5226326, “Discovery of 1-Benzoyl 4-Phenoxypiperidines as Small-Molecule Inhibitors of the β-Catenin/B-Cell Lymphoma 9 Protein-Protein Interaction” (J Med Chem, 2021).

One test concerns MDA-MB-468. Nature of the test: Antiproliferative activity against beta-catenin signalling overexpressing human MDA-MB-468 cells assessed as reduction in cell growth incubated for 72 hrs by MTS assay. Type of test: functional, cell-based. Conditions: MDA-MB-468, 72 h.
Test [1] is described as follows: Inhibition of Wnt/beta-catenin D145A/E155A mutant transactivation signalling in human HEK293 cells transfected with TOPFlash reporter gene incubated for 24 hrs by TOPFlash luciferase assay. Format: cell-based. Conditions: HEK293, 24 h. In general terms: In a reporter assay the amount or activity of a reporter protein is the signal.
The next test has as its system HCT-116. The experiment in a line: Antiproliferative activity against beta-catenin signalling overexpressing human HCT-116 cells assessed as reduction in cell growth incubated for 72 hrs by MTS assay. Type of test: functional, cell-based. The following applies: HCT-116, 72 h. (Tetrazolium dyes change colour on reduction, which living cells bring about.)
Test [2] deals with T1, Catenin beta-1/Cadherin-1 (Homo sapiens, UniProt P35222).
T1 sequence (P35222 whole entry): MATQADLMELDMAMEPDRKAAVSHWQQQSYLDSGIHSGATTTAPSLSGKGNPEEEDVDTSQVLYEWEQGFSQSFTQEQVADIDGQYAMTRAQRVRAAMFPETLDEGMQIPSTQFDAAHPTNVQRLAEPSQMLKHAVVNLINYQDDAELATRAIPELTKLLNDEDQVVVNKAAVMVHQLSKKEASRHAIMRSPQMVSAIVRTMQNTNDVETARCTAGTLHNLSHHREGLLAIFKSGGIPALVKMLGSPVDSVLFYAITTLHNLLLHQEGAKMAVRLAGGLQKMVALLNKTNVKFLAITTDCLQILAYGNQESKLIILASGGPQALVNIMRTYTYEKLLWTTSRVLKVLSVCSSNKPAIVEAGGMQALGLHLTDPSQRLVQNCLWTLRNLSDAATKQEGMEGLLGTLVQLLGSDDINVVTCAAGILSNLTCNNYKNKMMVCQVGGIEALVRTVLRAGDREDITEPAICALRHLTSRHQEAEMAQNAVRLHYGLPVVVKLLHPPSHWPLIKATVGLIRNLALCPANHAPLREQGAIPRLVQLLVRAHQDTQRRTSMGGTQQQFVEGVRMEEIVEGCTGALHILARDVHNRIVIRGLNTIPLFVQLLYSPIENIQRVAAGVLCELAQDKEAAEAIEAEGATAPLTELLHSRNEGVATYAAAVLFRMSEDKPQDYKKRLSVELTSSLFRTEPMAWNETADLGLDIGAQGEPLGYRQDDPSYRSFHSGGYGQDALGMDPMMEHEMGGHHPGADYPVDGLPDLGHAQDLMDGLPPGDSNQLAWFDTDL
T1 sequence (P12830 whole entry): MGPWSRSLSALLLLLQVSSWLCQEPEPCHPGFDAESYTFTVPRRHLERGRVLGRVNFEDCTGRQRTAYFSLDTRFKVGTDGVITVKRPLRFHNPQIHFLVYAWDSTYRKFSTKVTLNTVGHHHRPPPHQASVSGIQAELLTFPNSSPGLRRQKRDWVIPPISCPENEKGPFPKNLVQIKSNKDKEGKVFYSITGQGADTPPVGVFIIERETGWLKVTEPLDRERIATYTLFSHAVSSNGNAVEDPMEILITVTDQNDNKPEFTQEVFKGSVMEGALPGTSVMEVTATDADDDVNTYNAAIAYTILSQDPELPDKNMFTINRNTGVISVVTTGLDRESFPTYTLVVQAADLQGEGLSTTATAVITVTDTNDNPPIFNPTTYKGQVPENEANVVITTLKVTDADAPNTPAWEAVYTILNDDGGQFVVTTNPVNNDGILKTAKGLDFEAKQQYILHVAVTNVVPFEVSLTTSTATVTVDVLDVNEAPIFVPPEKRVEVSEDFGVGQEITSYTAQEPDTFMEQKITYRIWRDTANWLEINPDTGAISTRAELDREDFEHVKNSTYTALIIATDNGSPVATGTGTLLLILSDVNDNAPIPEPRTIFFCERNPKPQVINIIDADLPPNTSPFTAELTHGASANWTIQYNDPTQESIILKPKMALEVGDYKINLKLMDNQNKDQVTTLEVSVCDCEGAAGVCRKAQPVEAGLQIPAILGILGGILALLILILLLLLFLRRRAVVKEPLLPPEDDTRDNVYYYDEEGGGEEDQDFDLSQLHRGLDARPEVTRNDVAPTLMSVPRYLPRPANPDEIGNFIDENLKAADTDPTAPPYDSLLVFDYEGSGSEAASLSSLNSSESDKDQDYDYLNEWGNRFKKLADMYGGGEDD
The experiment in a line: Inhibition of full length beta-catenin (1 to 686 residues) (unknown origin) expressed in Escherichia coli BL21 (DE3)/N-terminal biotinylated human E-cadherin (824 to 877 residues) protein-protein interaction incubated for 2 hr by Alphascreen assay.

What is called IC50 is the point on the concentration scale where inhibition reaches its midpoint. A word on the Kd: it is the free concentration of one partner at which half of the binding sites on the other are occupied at equilibrium, for simple one-to-one binding. Read a high Kd as weaker binding. With `CC(C)(C)C1CCC(c2cc(C(=O)N3CCC(Oc4cc(N5CCNCC5)ccc4C#N)CC3)ccc2O[C@H]2CCNC2)CC1.Cl.Cl` (mixture of isomers; cis), the values for the IC50 (in the test on MDA-MB-468; in test [1]; with HCT-116) were 3.9 µM, 24 µM and 9.7 µM, respectively. In test [2], this compound returned a dissociation constant Kd of 80 µM.
